From patent US12202818B2, “Compounds and methods for CD73 modulation and indications therefor” (Opna Bio SA, priority 2020, dated 2025)
Blank lines part the entries; values can stand above or below the molecule they belong to.

How the values were obtained:
[1] = target: T1, Human CD73 (amino acid residues 27-549) (Homo sapiens, UniProt P21589); assay: CD73 enzymatic assay (luciferase-based indirect assay, CellTiter-Glo); type: biochemical; conditions: 0.4 nM CD73, 150 μM AMP, 1 hour at room temperature
T1 construct: Human CD73 (amino acid residues 27-549); His tag (N); made in house; host or cells: E. coli
T1 sequence (P21589 27-549): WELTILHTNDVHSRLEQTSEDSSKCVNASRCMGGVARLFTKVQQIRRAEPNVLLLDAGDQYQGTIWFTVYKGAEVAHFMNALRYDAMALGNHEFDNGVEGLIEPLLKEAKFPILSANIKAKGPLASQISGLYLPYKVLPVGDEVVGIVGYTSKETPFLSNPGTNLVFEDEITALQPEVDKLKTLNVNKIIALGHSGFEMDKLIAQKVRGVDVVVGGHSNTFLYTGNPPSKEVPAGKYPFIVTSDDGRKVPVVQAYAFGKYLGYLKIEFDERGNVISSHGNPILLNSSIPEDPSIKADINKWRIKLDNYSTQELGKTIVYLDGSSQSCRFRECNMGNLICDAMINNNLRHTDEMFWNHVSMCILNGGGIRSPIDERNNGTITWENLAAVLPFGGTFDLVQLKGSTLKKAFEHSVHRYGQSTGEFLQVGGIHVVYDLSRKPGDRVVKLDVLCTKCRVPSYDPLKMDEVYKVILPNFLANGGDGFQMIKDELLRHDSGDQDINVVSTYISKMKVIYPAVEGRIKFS
Procedure, shortened: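 Luciferase-coupled readout: AMP left after CD73 turnover suppresses CellTiter-Glo signal (1 μM ATP final, 30 min RT). Reaction beforehand: 150 μM AMP, 0.4 nM E. coli-made His-tagged CD73 residues 27-549, test compound, HEPES pH 7.4 with Tween-20, 1 h RT. % inhibition fitted nonlinearly for IC50.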

human CD73 = target: T2, human CD73 (Homo sapiens, UniProt P21589); assay: Inhibitor activity against CD73 in cell based assay (CD73 expressing CHO-K1 cells); conditions: CHO-K1 cells expressing human CD73, 150 μM AMP, 4 hours of incubation; read-out: CHO-K1 CELL_VARIANT: CD73 IC50
T2 construct: expressed in transfected cells
T2 sequence (P21589 27-549): T1 sequence (P21589 27-549)
Procedure, shortened: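 AMP (150 μM) was added alongside 8 titrated compound doses (maximum 10 μM, 1:3 steps) to CHO-K1 cells stably expressing human CD73. After 4 h, supernatant AMP was measured indirectly with CellTiter-Glo 2.0 plus 1 μM ATP (30 min, RT). % inhibition versus high and low controls was fitted nonlinearly for IC50.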

Structure (SMILES): CCn1nc(C)c(-c2ccnc(O[C@@H]3CCN(c4cnn(CCO)c(=O)c4Cl)C3)c2)c1C [P-0062, (R)-4-chloro-5-(3-((4-(1-ethyl-3,5-dimethyl-1H-pyrazol-4-yl)pyridin-2-yl)oxy)pyrrolidin-1-yl)-2-(2-hydroxyethyl)pyridazin-3(2H)-one]
- IC50 [1]: 0.001 to 10 µM
- IC50 (human CD73): 0.001 to 10 µM

Structure (SMILES): Cc1nn(C)c(C)c1-c1cc(O[C@H]2CN(c3cnn(CCO)c(=O)c3Cl)C[C@@H]2F)ncn1 [P-0144, 4-chloro-5-((3S,4S)-3-fluoro-4-((6-(1,3,5-trimethyl-1H-pyrazol-4-yl)pyrimidin-4-yl)oxy)pyrrolidin-1-yl)-2-(2-hydroxyethyl)pyridazin-3(2H)-one]
- IC50 [1]: 0.001 to 10 µM
- IC50 (human CD73): 0.001 to 10 µM

Structure (SMILES): O=c1c(Cl)c(N2CC[C@@H](Oc3cc(N4[C@@H]5CC[C@H]4CC(F)(F)C5)ccn3)C2)cnn1CCO [P-0107, 4-chloro-5-((R)-3-((4-((1R,5S)-3,3-difluoro-8-azabicyclo[3.2.1]octan-8-yl)pyridin-2-yl)oxy)pyrrolidin-1-yl)-2-(2-hydroxyethyl)pyridazin-3(2H)-one]
- IC50 [1]: 0.001 to 10 µM
- IC50 (human CD73): 10 to 100 µM

Structure (SMILES): Cc1nn(C)c(C)c1-c1cc(O[C@@H]2CCN(c3cnn(CCO)c(=O)c3Cl)C2)ncn1 [P-0128, (R)-4-chloro-2-(2-hydroxyethyl)-5-(3-((6-(1,3,5-trimethyl-1H-pyrazol-4-yl)pyrimidin-4-yl)oxy)pyrrolidin-1-yl)pyridazin-3(2H)-one]
- IC50 [1]: 0.001 to 10 µM
- IC50 (human CD73): 0.001 to 10 µM

Structure (SMILES): Cc1nn(C2CC2)c(C)c1-c1ccnc(O[C@@H]2CCN(c3cn[nH]c(=O)c3Cl)C2)c1 [P-0022, (R)-4-chloro-5-(3-((4-(1-cyclopropyl-3,5-dimethyl-1H-pyrazol-4-yl)pyridin-2-yl)oxy)pyrrolidin-1-yl)pyridazin-3(2H)-one]
- IC50 [1]: 0.001 to 10 µM
- IC50 (human CD73): 0.001 to 10 µM

Structure (SMILES): Cc1ccnc(C(C)C)c1Nc1cccnc1O[C@@H]1CCN(c2cn[nH]c(=O)c2Cl)C1 [P-0105, (R)-4-chloro-5-(3-((3-((2-isopropyl-4-methylpyridin-3-yl)amino)pyridin-2-yl)oxy)pyrrolidin-1-yl)pyridazin-3(2H)-one]
- IC50 [1]: 0.001 to 10 µM
- IC50 (human CD73): 0.001 to 10 µM

Structure (SMILES): CC(C)N1CCN(c2ccnc(O[C@@H]3CCN(c4cn[nH]c(=O)c4Cl)C3)c2)CC1 [P-0003, (R)-4-chloro-5-(3-((4-(4-isopropylpiperazin-1-yl)pyridin-2-yl)oxy)pyrrolidin-1-yl)pyridazin-3(2H)-one]
- IC50 [1]: 0.001 to 10 µM
- IC50 (human CD73): 0.001 to 10 µM

Structure (SMILES): Cc1nn(CC2CC(C(N)=O)C2)c(C)c1-c1ccnc(O[C@@H]2CCN(c3cn[nH]c(=O)c3Cl)C2)c1 (stereo partly drawn) [P-0056, (R)-3-((4-(2-((1-(5-chloro-6-oxo-1,6-dihydropyridazin-4-yl)pyrrolidin-3-yl)oxy)pyridin-4-yl)-3,5-dimethyl-1H-pyrazol-1-yl)methyl)cyclobutane-1-carboxamide]
- IC50 [1]: 0.001 to 10 µM
- IC50 (human CD73): 0.001 to 10 µM

Structure (SMILES): Cc1nn(C2COC2)c(C)c1-c1ccnc(O[C@@H]2CCN(c3cn[nH]c(=O)c3Cl)C2)c1 [P-0070, (R)-4-chloro-5-(3-((4-(3,5-dimethyl-1-(oxetan-3-yl)-1H-pyrazol-4-yl)pyridin-2-yl)oxy)pyrrolidin-1-yl)pyridazin-3(2H)-one]
- IC50 [1]: 0.001 to 10 µM
- IC50 (human CD73): 0.001 to 10 µM

Structure (SMILES): O=c1[nH]ncc(N2CC[C@@H](Oc3cc(N4CCC(CO)(CCl)CC4)ccn3)C2)c1Cl [P-0083, (R)-4-chloro-5-(3-((4-(4-(chloromethyl)-4-(hydroxymethyl)piperidin-1-yl)pyridin-2-yl)oxy)pyrrolidin-1-yl)pyridazin-3(2H)-one]
- IC50 [1]: 0.001 to 10 µM
- IC50 (human CD73): 0.001 to 10 µM

Structure (SMILES): Cc1noc(C)c1-c1ccnc(O[C@@H]2CCN(c3cnn(CCCO)c(=O)c3Cl)C2)c1 [P-0090, (R)-4-chloro-5-(3-((4-(3,5-dimethylisoxazol-4-yl)pyridin-2-yl)oxy)pyrrolidin-1-yl)-2-(3-hydroxypropyl)pyridazin-3(2H)-one]
- IC50 [1]: 0.001 to 10 µM
- IC50 (human CD73): 0.001 to 10 µM

Structure (SMILES): CC1CNCCC1c1ccnc(O[C@@H]2CCN(c3cn[nH]c(=O)c3Cl)C2)c1 (stereo partly drawn) [P-0009, 4-chloro-5-((3R)-3-((4-(3-methylpiperidin-4-yl)pyridin-2-yl)oxy)pyrrolidin-1-yl)pyridazin-3(2H)-one]
- IC50 [1]: 0.001 to 10 µM
- IC50 (human CD73): 0.001 to 10 µM

Structure (SMILES): O=C(O)C1CC=C(c2ccnc(O[C@@H]3CCN(c4cn[nH]c(=O)c4Cl)C3)c2)CC1 (stereo partly drawn) [P-0050, 4-(2-(((R)-1-(5-chloro-6-oxo-1,6-dihydropyridazin-4-yl)pyrrolidin-3-yl)oxy)pyridin-4-yl)cyclohex-3-ene-1-carboxylic acid]
- IC50 [1]: 0.001 to 10 µM
- IC50 (human CD73): 0.001 to 10 µM

Structure (SMILES): O=c1[nH]ncc(N2CC[C@@H](Oc3cc(C4CCN(CC(O)C(F)(F)F)CC4)ccn3)C2)c1Cl (stereo partly drawn) [P-0011, 4-chloro-5-((3R)-3-((4-(1-(3,3,3-trifluoro-2-hydroxypropyl)piperidin-4-yl)pyridin-2-yl)oxy)pyrrolidin-1-yl)pyridazin-3(2H)-one]
- IC50 [1]: 0.001 to 10 µM
- IC50 (human CD73): 0.001 to 10 µM

Other lines, results leading:

- IC50 [1]: 0.001 to 10 µM
- IC50 (human CD73): 0.001 to 10 µM
Structure (SMILES): Cc1nn(C)c(C)c1-c1cc(O[C@H]2CN(c3cn[nH]c(=O)c3Cl)C[C@@H]2F)ncn1 [P-0147, 4-chloro-5-((3S,4S)-3-fluoro-4-((6-(1,3,5-trimethyl-1H-pyrazol-4-yl)pyrimidin-4-yl)oxy)pyrrolidin-1-yl)pyridazin-3(2H)-one]

- IC50 [1]: 0.001 to 10 µM
- IC50 (human CD73): 0.001 to 10 µM
Structure (SMILES): O=C(Nc1ccc(-c2ccnc(O[C@@H]3CCN(c4cn[nH]c(=O)c4Cl)C3)c2)c(F)c1)C1CCCC1 [P-0206, (R)-N-(4-(2-((1-(5-chloro-6-oxo-1,6-dihydropyridazin-4-yl)pyrrolidin-3-yl)oxy)pyridin-4-yl)-3-fluorophenyl)cyclopentane-carboxamide]

- IC50 [1]: 0.001 to 10 µM
- IC50 (human CD73): 10 to 100 µM
Structure (SMILES): O=C(O)Cc1ccc(-c2ccnc(O[C@@H]3CCN(c4cn[nH]c(=O)c4Cl)C3)c2)c(F)c1 [P-0219, (R)-2-(4-(2-((1-(5-chloro-6-oxo-1,6-dihydropyridazin-4-yl)pyrrolidin-3-yl)oxy)pyridin-4-yl)-3-fluorophenyl)acetic acid]

- IC50 [1]: 0.001 to 10 µM
- IC50 (human CD73): 0.001 to 10 µM
Structure (SMILES): Cc1noc(C)c1-c1cc(O[C@@H]2CCN(c3cn[nH]c(=O)c3Cl)C2)ncc1F [P-0149, (R)-4-chloro-5-(3-((4-(3,5-dimethylisoxazol-4-yl)-5-fluoropyridin-2-yl)oxy)pyrrolidin-1-yl)pyridazin-3(2H)-one]

- IC50 [1]: 0.001 to 10 µM
- IC50 (human CD73): 0.001 to 10 µM
Structure (SMILES): O=c1[nH]ncc(N2CC[C@@H](Oc3cc(N4CCC(NS(=O)(=O)C5CC5)CC4)ccn3)C2)c1Cl [P-0221, (R)-N-(1-(2-((1-(5-chloro-6-oxo-1,6-dihydropyridazin-4-yl)pyrrolidin-3-yl)oxy)pyridin-4-yl)piperidin-4-yl)cyclopropanesulfonamide]

- IC50 [1]: 0.001 to 10 µM
- IC50 (human CD73): 0.001 to 10 µM
Structure (SMILES): Cc1n[nH]c(C)c1-c1cc(F)nc(O[C@@H]2CCN(c3cn[nH]c(=O)c3Cl)C2)c1 [P-0193, (R)-4-chloro-5-(3-((4-(3,5-dimethyl-1H-pyrazol-4-yl)-6-fluoropyridin-2-yl)oxy)pyrrolidin-1-yl)pyridazin-3(2H)-one]

- IC50 [1]: 0.001 to 10 µM
- IC50 (human CD73): 0.001 to 10 µM
Structure (SMILES): Cc1nn(CC2CC2)c(C)c1-c1cc(F)nc(O[C@@H]2CCN(c3cn[nH]c(=O)c3Cl)C2)c1 [P-0152, (R)-4-chloro-5-(3-((4-(1-(cyclopropylmethyl)-3,5-dimethyl-1H-pyrazol-4-yl)-6-fluoropyridin-2-yl)oxy)pyrrolidin-1-yl)pyridazin-3(2H)-one]
